# No end group written: not given here.
# Columns and labels:
# [1] = test system: CTL line induced by TYF (PBMCs from ID*24-8); test: Cross-reactivity of the TYF-induced CTL line to the subgroup C-specific CTL epitope; format: cell-based, human
# Description: As shown in FIG. 11-4, there are amino acid mutations at the fourth and sixth positions in TYF identified in the present invention as compared to the subgroup C-specific CTL epitopes. Thus, the cross-reactivity to subgroup C-specific CTL epitope ([…] (SEQ ID NO: 14); mutated amino acids are underlined) (Leen A M, Sili U, Vanin E F, Jewell A M, Xie W, Vignali D, Piedra P A, Brenner M K, Rooney C M. Conserved CTL epitopes on the adenovirus hexon protein expand subgroup cross-reactive and subgroup-specific CD8+ T cells. Blood. 104:2432-2440 (2004)) was examined using a CTL line induced by TYF.
# PBMCs prepared from ID*24-8 were stimulated with TYF for 13 days, and then restimulated with TYF or […] (SEQ ID NO: 14) to examine whether the CTL line produces IFNγ.
# [2] = test system: peripheral blood / PBMCs / peptide-induced CTL lines of HLA-A*24 donors; test: Staining of peripheral blood, PBMCs or peptide-induced CTL lines with MHC-tetramer reagents; format: cell-based, human; parameters: positive rate: CD8-positive, MHC-tetramer reagent-positive cells to viable cells: concentration or dose not given beside the values; settings: for MHC-tetramer reagent-positive cells (UL and UR) in IFNγ / tetramer plot, almost none producing IFNγ: HIV peptide added, TYF: donor ID*24-8, VYS: donor ID*24-2; for increase of the positive rate from day 0 to day 10: donor ID*24-8, ten days of culture with the peptide; for amount of specific CTLs (CD8 / MHC-tetramer reagent-positive): TYF: donor ID*24-8, 10 days stimulation, VYS: donor ID*24-2, 27 days
# Procedure: MBL Co. where the present inventors are affiliated with has acquired exclusive patent licensing rights in Japan for MHC-tetramer reagents (U.S. Pat. No. 5,635,363; French Application No. FR9911133; and U.S. Pat. Nos. 5,723,584, 5,874,239, 5,932,433, and 6,265,552) from Beckman Coulter Co. Based on the patents, PE-labeled MHC-tetramer reagents were prepared using adenovirus-specific CTL epitope peptides and HLA-A*2402 molecules.
# Adenovirus-specific CTLs quantification was carried out using MHC-tetramer reagents that was prepared using CTL epitope peptides of the present invention, with peripheral blood, PBMCs isolated from peripheral blood, CTL lines induced using CTL epitope peptides as samples. Examples of quantification using PE-labeled MHC-tetramer reagents are described below. Labelling dyes may be used in an appropriate combination depending on the type of flow cytometer to be used, and is not limited to the examples described below.
# Ten μl of a PE-labeled MHC-tetramer reagent, 20 μl of an FITC-labeled antibody for T cell (for example, CD8, CD4, or CD3), and such were added to 200 μl of collected peripheral blood. A CD45 antibody labeled with PC5 or such may also be added to eliminate nonspecific fluorescence due to contaminated erythrocytes. After gentle mixing, the mixture was allowed to stand at room temperature for 30 minutes. OptiLyse B was added, and erythrolysis and fixation was carried out according to the manufacturer's protocol. Two ml of PBS was added, stirred, and the cells were centrifuged at 400×g for 5 minutes. After the supernatant was removed by aspiration, the cells were resuspended in 500 μl of PBS and analyzed using a flow cytometer within 24 hours.
# Ten μl of a PE-labeled MHC-tetramer reagent, 20 μl of an FITC-labeled T cell surface antibody (for example, CD8, CD4, or CD3), and such were added to an appropriate amount of PBMCs (10^5 to 10^6 cells) or a CTL line induced by use of CTL epitope peptides. A CD45 antibody labeled with PC5 or such may also be added to eliminate nonspecific fluorescence due to contaminated erythrocytes. After gentle mixing, the cells were allowed to stand at room temperature for 30 minutes. Three ml of PBS was added, stirred, and the cells were centrifuged at 400×g for 5 minutes. After the supernatant was removed by aspiration, the cells were resuspended in 500 μl of PBS. When a CTL line is used, 7-AAD Viability Dye (Non-viable cell detection reagent; MBL Co.) may be added to eliminate nonspecific fluorescence caused by non-viable cells. The cells were analyzed using a flow cytometer within 24 hours.
# The results of staining obtained using the five types of MHC-tetramer reagents used to prepare the peptide-induced CTL lines are shown in FIG. 5.
# [3] = donor ID*24-8, PBMCs cultured with the epitope peptide for 10 days (day 10)
# [4] = donor ID*24-8, immediately after blood collection (day 0)
# [5] = restimulation with the specific peptide
Sequence,cross-reactivity to subgroup C [1],IFNγ production of the CTL line induced by TYF on restimulation with the named peptide ([1]; PBMCs from ID*24-8 stimulated with TYF for 13 days),"CD8-positive and TYF-Tet-positive cells ([1]; PBMCs from ID*24-8 stimulated with TYF for 13 days, restimulated with the named peptide) [%]","MHC-tetramer reagent-positive cells (UL and UR) in IFNγ / tetramer plot, almost none producing IFNγ [2] [%]","positive rate: CD8-positive, MHC-tetramer reagent-positive cells to viable cells [2, 3] [%]","positive rate: CD8-positive, MHC-tetramer reagent-positive cells to viable cells [2, 4] [%]",increase of the positive rate from day 0 to day 10 [2] [times],amount of specific CTLs (CD8 / MHC-tetramer reagent-positive) ([2]; restimulation with HIV peptide) [%],"amount of specific CTLs (CD8 / MHC-tetramer reagent-positive) [2, 5] [%]"
TYFNLGNKF [TYF],no cross-reactivity,produced IFNγ in a TYF-specific manner,1.22,1.76,1.53,0.01,153,1.67,0.80
VYSGSIPYL,–,–,–,8.24,0.15,0.01,15,8.33,5.07

# Reference: patent US20090142363A1, “CYTOTOXIC T-CELL EPITOPE PEPTIDE AND USE THEREOF” (priority 2005, published 2009)
